The structures appear in SMILES notation. Where a SMILES comes first, the peptide text is derived from it. Some results are limits rather than exact numbers.

Data set [1] deals with T1, human NK2 Receptor (hNK2R) (Homo sapiens, UniProt P21452).
T1 sequence (P21452 1-398): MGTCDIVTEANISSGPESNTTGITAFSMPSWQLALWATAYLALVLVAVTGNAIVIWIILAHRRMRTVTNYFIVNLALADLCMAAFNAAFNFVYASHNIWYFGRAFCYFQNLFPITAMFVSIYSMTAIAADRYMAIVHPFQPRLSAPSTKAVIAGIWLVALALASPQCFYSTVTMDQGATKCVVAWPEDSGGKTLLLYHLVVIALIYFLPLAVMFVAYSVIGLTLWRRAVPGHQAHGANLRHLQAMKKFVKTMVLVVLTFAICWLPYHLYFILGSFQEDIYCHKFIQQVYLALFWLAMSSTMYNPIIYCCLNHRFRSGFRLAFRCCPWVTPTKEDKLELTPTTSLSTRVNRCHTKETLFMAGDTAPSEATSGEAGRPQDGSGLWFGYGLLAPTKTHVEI
Kind of data set: [125I]-NKA radioligand competition binding to human recombinant NK2Rs (CHO-hNK2 membranes). The settings on record: for Ki: displacement of 0.1 nM [125I]-NKA, CHO-hNK2 membranes, read-out: hNK2 binding Ki; for hNK2 selectivity ratio: ratio of Kis hNK1R/hNK2R. On the procedure: (§1) After removal of the supernatant the cell pellet was washed and collected by re-suspension in PBS and centrifugation.
(§2) Frozen pellets were thawed and homogenized in 10 volumes (w/v) of membrane preparation buffer (50 mM HEPES pH 7.4, 1 mM EDTA, 50 μg/mL bacitracin and protease inhibitors) using a Polytron Ultraturrax (twice for 15 s per cycle). […] Protein concentration was determined using BioRad Protein Assay (Milan, Italy) with a BSA standard curve.

Data set [2] addresses human NK1 Receptor (hNK1R) (Homo sapiens, UniProt P25103). Kind of data set: [3H]-septide radioligand competition binding to human recombinant NK1Rs (CHO-hNK1 membranes). The conditions noted are these: displacement of 5.0 nM [3H]-septide, CHO-hNK1 membranes; read-out: hNK1 binding Ki. The method, then:
as §1, §2

The nature of data set [3]: Pharmacokinetics in rat plasma after cassette IV bolus dosing. The settings on record: Sprague-Dawley, in vivo, iv. On the procedure:
The concentrations of compounds (SEQ ID NOS: 1-11) were measured in rat plasma after intravenous (IV) bolus dosing to determine pharmacokinetic profiles of individual compounds.
Animal preparation: In vivo studies were performed in anesthetized adult Sprague Dawley rats. Rats were anesthetized with urethane (1.2-1.4 g/kg subcutaneous injection). Surgical procedures were then performed with the addition of isoflurane anesthesia (0.05-1.5% in 02) as needed. A venous cannula was inserted into the jugular vein for intravenous (IV) administration of compounds.
In vivo dosing and plasma sampling: Compounds were divided into two groups (soluble and insoluble). Each group was dosed as a cassette in which four compounds (100 μg/kg each compound) were combined into a single IV bolus injection to anesthetized adult Sprague-Dawley rats. Soluble compounds were dissolved in saline. Insoluble compounds were dissolved in a 10% ethanol/saline solution. Rats were cassette dosed based on weight using 0.1 mg/mL solutions of individual compounds. Blood samples (700 μL) were collected using a carotid artery cannula into EDTA tubes containing ascorbic acid (final concentration 1%), and plasma was isolated.
Bioanalytical assay: A reversed-phase HPLC with Turbo Ion Spray MS/MS detection method was developed for bioanalysis. Mass spec transition and settings were individually optimized for each compound and then compounds were cassetted for HPLC method development and optimization. [^13C9; ^15N] [Lys5,MeLeu9,Nle10]-NKA(4-10) was used as an internal standard (IS). Analyte-to-IS peak area ratios for individual compounds were used to create linear calibration curves (1-20 ng/mL) using 1/×2 weighted least-squares regression analysis for evaluation of method linearity, precision and accuracy. For plasma concentration measurements, plasma samples were spiked with IS, processed by extraction, and analyzed using LC-MS/MS. Positive (M+H)+ ions for individual compounds and IS were monitored in MRM mode.

Data set [4] can be described thus: Saline solubility of heptapeptides. Format: physicochemical. On the procedure: Heptapeptides A-K shown below in Table 1 (SEQ ID NOs: 1-11) were synthesized according to standard Fmoc-mediated solid-phase techniques and purified under typical C18 reverse-phase conditions.
Compounds D-K were considered to be insoluble in saline (<1 mg/mL).

The test system of data set [5] is anesthetized dog. Kind of data set: Colorectal pressure manometry in anesthetized dog. In kind it is in vivo. The conditions noted are these: for duration of colorectal pressure response: IV bolus (B and E 3 μg/kg; G 3, 30 and 66 ug/kg); for onset of increase in colorectal pressure: IV bolus (E 3 μg/kg; G 3, 30 and 66 ug/kg). On the procedure:
Animal preparation: Naïve beagle dogs were fasted for 12-24 hours and received a warm water enema the night prior to, and the morning of, the experiment to clear the rectum and lower colon of feces. The day of the experiment, a 20 gauge IV catheter (Terumo Surflo) was placed in the cephalic vein for anesthetic induction (propofol, 10 mg/kg; IV) and delivery of IV fluids (5-10 ml/kg/hr) and compounds. The sedated dog was intubated with a 5-6 Fr tracheal tube and was maintained on 2-3% isoflurane via a ventilator (15-25 breaths/min; tidal volume […]) for the remainder of the experiment.
Bowel contractility: For colorectal pressure manometry, an ˜3 inch balloon catheter was inserted into the rectum and secured to the tail with tape. This catheter was connected via a three-way stopcock to a pressure transducer (UTAH MEDICAL PRODUCTS; DelTran II) for pressure recording. Data were recorded using PowerLab/8SP acquisition system using LabChart software (version 7.3.7; ADINSTRUMENTS, Australia). Arterial pressure, ECG, temperature and blood oxygen saturation (spO2) were monitored throughout the experiment (MEDTRONIC LIFEPAK12). Dogs were recovered in a quiet room under veterinary supervision.

Data set [6] has as its target T2, recombinant hNK2R expressed in CHO cells (Homo sapiens, UniProt P21452).
T2 sequence (P21452 1-398): T1 sequence (P21452 1-398)
The data set is described as follows: Intracellular calcium mobilization (FLIPR) in CHO-hNK2 cells. The conditions noted are these: for EC50: calcium mobilization, CHO-hNK2 cells, read-out: hNK2 EC50; for hNK2 selectivity ratio: ratio of EC50s hNK1R/hNK2R. Format: cell-based. On the procedure:
(§3) CHO-hNK1 and CHO-hNK2 cells were seeded into black walled clear-bottom 384-well plates) at a density of 10,000 and 15,000 cells per well in 50 μL culture media, respectively, and grown overnight at 37° C. in a humidified CO2-incubator. Cells were washed in washing buffer using the EMBLA 384 instrument, leaving 20 μL of buffer per well after the final aspiration. Cells were then incubated at 37° C. with the cytoplasmic Ca2+ indicator Fluo-4 AM (final concentration 1 μM) in assay buffer (20 mM HEPES, 145 mM NaCl, 5 mM KCl, 5.5 mM glucose, 1 mM MgCl2 and 2 mM CaCl2, pH 7.4, 0.05% Pluronic F-127 and 0.1% BSA) containing 2.5 mM probenecid for […] (cell loading). Cells were then washed 3 times in washing buffer (20 mM HEPES, 145 mM NaCl, 5 mM KCl, 5.5 mM glucose, 1 mM MgCl2 and 2 mM CaCl2, pH 7.4 and 2.5 mM probenecid) using the EMBLA 384 instrument, leaving 30 μL of buffer in each well after the last wash. Loaded cell plates were transferred to the FLIPR machine and calcium responses were monitored as described below. A dual read-out FLIPR protocol was used, allowing for characterization of both agonist and antagonist profiles. For quality control, in each compound plate the signal was monitored by evaluating the responses to the reference standards (NKA and Substance P).
(§4) Concentration response curves of compounds were run in duplicate on two different occasions from the same stock solutions. Test solutions were prepared from 10 mM stock solutions in DMSO and 1 μL of each solution was stamped into V-bottom assay plates containing 49 μL assay buffer. The final concentration of DMSO was 0.5% in each well.

Data set [7] deals with recombinant hNK1R expressed in CHO cells (Homo sapiens, UniProt P25103). The data set is described as follows: Intracellular calcium mobilization (FLIPR) in CHO-hNK1 cells. Format: cell-based. The settings on record: calcium mobilization, CHO-hNK1 cells; read-out: hNK1 EC50. The method, then: as §3, §4
recombinant hNK1R expressed in CHO cells, sequence (P25103 whole entry): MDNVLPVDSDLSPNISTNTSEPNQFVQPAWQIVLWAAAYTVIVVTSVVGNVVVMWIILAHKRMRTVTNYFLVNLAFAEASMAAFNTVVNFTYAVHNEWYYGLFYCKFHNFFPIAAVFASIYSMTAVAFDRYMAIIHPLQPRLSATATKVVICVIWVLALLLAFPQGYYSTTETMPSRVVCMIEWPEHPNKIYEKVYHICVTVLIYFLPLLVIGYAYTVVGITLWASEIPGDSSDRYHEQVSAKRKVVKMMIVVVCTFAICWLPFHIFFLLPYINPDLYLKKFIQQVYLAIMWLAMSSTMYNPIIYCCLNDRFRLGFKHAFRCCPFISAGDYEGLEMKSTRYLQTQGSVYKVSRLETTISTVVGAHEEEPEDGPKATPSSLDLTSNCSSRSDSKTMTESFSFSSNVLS

human NK1 Receptor (hNK1R), sequence (P25103 whole entry): as above

As for `CSCC[C@H](NC(=O)[C@H](CC(C)C)NC(=O)CCNC(=O)[C@@H](NC(=O)[C@H](Cc1ccccc1)NC(=O)[C@H](CCCCN)NC(=O)[C@@H](N)CC(=O)O)C(C)C)C(N)=O` [Compound E, Asp-Lys-Phe-Val-(β-Ala)-Leu-Met-NH2] (HELM PEPTIDE1{D.K.F.V.[bAla].L.M.[am]}$$$$V2.0; N-terminus assumed), in data set [1], the inhibition constant (Ki) was 2.11 nM and the hNK2 selectivity ratio is on record as 122.04. Besides, the Ki in data set [2] amounted to 257 nM. This molecule also came in with a half-life in data set [3] of 3.3 to 4.7 min. The solubility in data set [4] was less than 1000 µg/mL. In data set [5], the “duration of colorectal pressure response” value was “approximately 4 minutes” and the “onset of increase in colorectal pressure” value is no more than 1 min. Also, in data set [6], the EC50 came to 0.18 nM and the hNK2 selectivity ratio amounted to 36. In addition, in data set [7], the EC50 amounted to 6.31 nM.

Consider `CCCC[C@H](NC(=O)[C@H](CC(C)C)NC(=O)CCNC(=O)[C@@H](NC(=O)[C@H](Cc1ccccc1)NC(=O)[C@H](CCCCN)NC(=O)[C@@H](N)CC(=O)O)C(C)C)C(N)=O` [Compound G, Asp-Lys-Phe-Val-(β-Ala)-Leu-Nle-NH2] (HELM PEPTIDE1{D.K.F.V.[bAla].L.[Nle].[am]}$$$$V2.0; N-terminus assumed), for which, in data set [1], the Ki was 16.4 nM and the hNK2 selectivity ratio amounted to 188.58. The Ki in data set [2] is 3090 nM. Moreover, in data set [3], the half-life is 3.3 to 4.7 min. In data set [4], this molecule yielded a solubility of less than 1000 µg/mL. Moreover, in data set [5], the “duration of colorectal pressure response” value is “approximately 5 minutes” and the “onset of increase in colorectal pressure” value was no more than 1 min. Moreover, in data set [6], the EC50 amounted to 3 nM and the hNK2 selectivity ratio came to 26. Besides, the EC50 in data set [7] turned out to be 78.2 nM.

The values are drawn from patent US11352391B2, “Compositions for inducing urinary voiding and defecation” (Dignify Therapeutics, LLC, priority 2017, dated 2022).
